The values that follow come from patent US12378252B2, “Pyrrolopyrazole derivatives, preparation method thereof and application thereof in medicine” (SHANGHAI MEDICILON INC., priority 2019, dated 2025).

The assay addresses T1, H+/K+ ATPase (Oryctolagus cuniculus, UniProt P27112).
T1 construct: The stomach tissue of the rabbit was separated; from tissue; host or cells: rabbit stomach (fundus) mucosa, membrane fraction obtained by differential and Ficoll centrifugation
Briefly: determination of compounds' inhibition of H+/K+ ATPase enzyme activity (malachite green, OD 620 nm). The class given is biochemical. Particulars: enzyme extracted from rabbit stomach tissue; pH 6.5; ATP 500 μM; 37° C. From the text: Test example: determination of compounds' inhibition of H^+/K+ATPase enzyme activity
The following experiment is used to determine the inhibitory effect of the compound of the present invention on the H^+/K+ATPase enzyme activity.
1. Experimental materials
Plate reader: SpectraMax M5 (MD)
Malachite Green (Sigma Aldrich, 213020-25G)
Ammonium molybdate (Sigma Aldrich, 277908-20G)
ATP (Sigma Aldrich, A1852-1VL).
Enzyme working solution: titrating the enzyme, diluting the enzyme with buffer 1, and during the reaction, taking 5 μl of the diluted solution into 50 μl reaction system.
ATP solution: 100 mM ATP was diluted to 5 mM with no K+buffer, and 5 μl of the diluted solution was added to the 50 μl reaction system, that is, the final concentration of ATP was 500 μM.
MLG color development liquid: 0.12% MLG, 7.5% ammonium molybdate, and […] Tween-20 was mixed as 100:25:2, and adding 15 μl of the mixture into each well during detection.
Buffer 1: 50 mM Tris-HCl pH 6.5, 5 mM magnesium chloride (magnesium chloride), 10 μM valinomycin (valinomycin).
Buffer 2: 50 mM Tris-HCl pH 6.5, 5 mM magnesium chloride (magnesium chloride), 10 μM valinomycin (valinomycin), 20 mM KCl.
Homogenization buffer: 10 mmol/L Tris-HCl, pH 6.8, 0.25M sucrose (sucrose), 1 mmol/LEDTA. 7.5% Ficoll layering solution: homogenization buffer+7.5% (W/W) 400 (Ficoll 400).
3.1. H^+/K^+ ATPase enzyme extraction
(1) The stomach tissue of the rabbit was separated, and the blood was washed with tap water, food residue.
(2) The fundus portion was thoroughly washed with pre-cooled NaCl solution to remove surface mucus.
(3) The stripped mucosa was filled into a sample bag or a 50 ml centrifuge tube, and quickly freezing in a liquid nitrogen tank.
(4) The tissue was removed, minced with surgical scissors, and a pre-cooled homogenization buffer (4 ml/g tissue) was added and homogenized in a tissue homogenizer for 2 to 10 minutes.
(5) After homogenization, if there were larger tissue particles, they could be removed by centrifugation (600 g, 10 min), and then the supernatant was transferred to a clean centrifuge tube. After centrifugation at 20000 g for 30 minutes, then the supernatant was transferred to a clean centrifuge tube at 100000 g for 90 minutes and the precipitate was collected.
(6) Resuspending the precipitate with homogenization buffer, blowing uniformly, adding 7.5% Ficoll layering solution at equal ratio, centrifuging at 100000 g for 90 minutes, and collecting the precipitate.
(7) Resuspending the precipitate with homogenization buffer, blowing uniformly, and the protein concentration was measured by Bradford. Freezing in tubes at −80° C. for later use.
3.2. H^+/K^+ ATPase activity experiment
(1) Adding 35 μl of reaction buffer to each experimental well, and then added 35 μl of buffer 1.
(2) Adding 5 μl buffer 1 containing 10% DMSO to the whole enzyme and buffer well.
(3) Adding 5 μl of 10× compound working solution to the compound well and mixing well.
(4) Adding 5 of buffer 1 to the buffer well.
(5) Adding 5 μl of 10× enzyme working solution to the remaining wells, mixing and incubating at 37° C. for 30 minutes.
(6) Adding 5 μl of 10XATP working solution to all experimental wells, and incubating at 37° C. for 20 min.
(7) Adding 15 μl MLG chromogenic solution to all experimental wells, and uniformly mixing and incubating at room temperature for 5-30 min.
(8) The reading number of 620 nm was detected by an M5 instrument.
The inhibition rate is calculated with the following formula: Inhibition rate (IC50)=[OD (sample well)−OD (full enzyme well containing potassium chloride)]/[(OD (full enzyme well containing potassium chloride)−(OD (full enzyme well without potassium chloride Enzyme hole)]×100%

SMILES strings stand for the structures. Structures can show the parent of a compound that is named as a salt.

T1 sequence (P27112 whole entry): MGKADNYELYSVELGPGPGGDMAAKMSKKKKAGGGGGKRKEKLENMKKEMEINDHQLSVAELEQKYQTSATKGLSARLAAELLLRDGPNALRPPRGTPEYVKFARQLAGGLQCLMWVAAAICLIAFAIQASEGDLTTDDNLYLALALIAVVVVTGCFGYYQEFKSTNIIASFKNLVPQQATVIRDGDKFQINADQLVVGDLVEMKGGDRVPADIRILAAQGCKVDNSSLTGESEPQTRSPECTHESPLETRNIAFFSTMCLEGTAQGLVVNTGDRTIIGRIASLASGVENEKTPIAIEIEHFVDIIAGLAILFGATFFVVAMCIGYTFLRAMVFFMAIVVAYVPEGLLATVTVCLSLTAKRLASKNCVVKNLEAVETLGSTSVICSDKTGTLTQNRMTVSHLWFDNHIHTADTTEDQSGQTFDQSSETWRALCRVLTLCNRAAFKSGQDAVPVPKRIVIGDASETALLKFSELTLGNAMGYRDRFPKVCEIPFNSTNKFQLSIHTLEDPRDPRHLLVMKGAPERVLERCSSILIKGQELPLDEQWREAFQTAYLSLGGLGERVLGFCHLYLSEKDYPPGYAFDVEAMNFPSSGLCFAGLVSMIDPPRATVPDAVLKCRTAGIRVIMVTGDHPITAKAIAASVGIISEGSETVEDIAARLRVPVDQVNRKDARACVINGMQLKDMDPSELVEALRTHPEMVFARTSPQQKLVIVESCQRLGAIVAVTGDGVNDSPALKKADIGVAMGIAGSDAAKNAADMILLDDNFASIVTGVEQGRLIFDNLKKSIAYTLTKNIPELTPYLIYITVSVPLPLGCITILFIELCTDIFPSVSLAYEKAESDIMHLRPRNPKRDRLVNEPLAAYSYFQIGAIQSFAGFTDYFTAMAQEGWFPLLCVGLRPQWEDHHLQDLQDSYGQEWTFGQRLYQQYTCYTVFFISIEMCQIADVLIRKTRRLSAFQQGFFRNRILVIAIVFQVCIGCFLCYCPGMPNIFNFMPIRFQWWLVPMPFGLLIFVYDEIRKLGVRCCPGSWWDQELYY
T1 sequence (P18597 whole entry partner): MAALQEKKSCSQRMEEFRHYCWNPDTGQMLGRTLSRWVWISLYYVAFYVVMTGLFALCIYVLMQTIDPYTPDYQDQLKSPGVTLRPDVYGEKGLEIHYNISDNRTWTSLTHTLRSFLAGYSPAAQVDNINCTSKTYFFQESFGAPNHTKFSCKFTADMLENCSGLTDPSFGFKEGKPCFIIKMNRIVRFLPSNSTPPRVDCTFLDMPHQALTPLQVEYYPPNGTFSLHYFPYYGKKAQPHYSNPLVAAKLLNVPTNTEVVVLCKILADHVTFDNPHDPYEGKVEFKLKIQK

For `COC(=O)c1cccc(Cn2nc3c(c2-c2ccc(F)cc2F)CN(C)C3)c1` [Example 9, 3-((3-(2,4-Difluorophenyl)-5-methyl-5,6-dihydropyrrolo [3,4-c]pyrazole-2(4H)-yl) Methyl) methyl benzoate], the IC50 (commonly the point on the concentration scale where inhibition reaches its midpoint) is 61.4 nM. Turning to `CCOC(=O)c1cccc(Cn2nc3c(c2-c2ccccc2F)CN(C)C3)c1` [Example 3, 3-((3-(2-fluorophenyl)-5-methyl-5,6-dihydropyrrolo[3,4-c]pyrazole-2(4H)-yl)methyl) ethyl benzoate], the IC50 worked out at 90.4 nM. The IC50 values of the last two compounds are within 1.5-fold of each other.

`CCCCOC(=O)c1cccc(Cn2nc3c(c2-c2ccccc2F)CN(C)C3)c1` [Example 2, 3-((3-(2-fluorophenyl)-5-methyl-5,6-dihydropyrrolo [3,4-c]pyrazole-2(4H)-yl)methyl)butyl benzoate] came in with an IC50 of 96.8 nM. Consider `CN1Cc2nn(Cc3cccc(C(=O)NC4CC4)c3)c(-c3ccccc3F)c2C1` [Example 4, N-cyclopropyl-3-((3-(2-fluorophenyl)-5-methyl-5,6-dihydropyrrolo[3,4-c]pyrazole-2(4H)-Yl)methyl)benzamide], for which 539 nM corresponded to half-maximal inhibition (IC50). Against the preceding compound, the IC50 is about 5.6-fold higher. Turning to `CN1Cc2nn(Cc3cccc(C(=O)OC(C)(C)C(N)=O)c3)c(-c3ccccc3F)c2C1` [Example 5, 1-amino-2-methyl-1-oxopropan-2-yl-3-((3-(2-fluorophenyl)-5-methyl-5,6-dihydropyrrolo [3,4-c]pyrazole-2(4H)-yl)methyl)benzoate], the IC50 turned out to be 225 nM. `COC(=O)c1cc(Cn2nc3c(c2-c2ccccc2C)CN(C)C3)ccc1F` [Example 7, 2-Fluoro-5-((5-methyl-3-(o-tolyl)-5,6-dihydropyrrole [3,4-c]pyrazole-2 (4H)-yl)methane Yl) methyl benzoate] registered an IC50 of 39 nM. The compound `COC(=O)c1cccc(Cn2nc3c(c2-c2ccccc2F)CN(C)C3)c1` [Example 1, 3-((3-(2-fluorophenyl)-5-methyl-5,6-dihydropyrrolo[3,4-c]pyrazole-2(4H)-yl)methyl)benzoic acid ester] registered an IC50 of 77.6 nM.

As to `Cc1ccccc1-c1c2c(nn1Cc1cccc(C(=O)OC(C)(C)C)c1)CN(C)C2` [Example 8, 3-((5-Methyl-3-(o-tolyl)-5,6-dihydropyrrolo[3,4-c]pyrazole-2(4H)-yl)methyl) benzene Tert-butyl formate], the IC50 was 589 nM. The figure for `COC(=O)c1cccc(Cn2nc3c(c2-c2ccccc2C)CN(C)C3)c1` [Example 6, 3-((5-methyl-3-(o-tolyl)-5,6-dihydropyrrolo[3,4-c]pyrazole-2(4H)-yl)methyl) Methyl benzoate] is 36.6 nM.
